Columns and labels:
septin-7 = molecular target: T1, septin-7 (Homo sapiens, UniProt Q16181); assay: Confocal analysis of septin-7; type: cell-based; settings: PANC-1 cells
T1 construct: investigate the response of other septin family members in PANC-1 cells upon treatment with UR214-9; endogenous in cells; host or cells: PANC-1, JIMT-1, SKOV-3 (confocal); PANC-1 (immunoblot)

[1] = test system: JIMT-1 breast cancer cells; assay: RNA-Seq whole transcriptome analysis, JIMT-1; type: cell-based, human; settings: 10 nM Afatinib, 1 μM UR214-9
HER2+ PANC-1 xenograft = assay: PANC-1 xenograft tumor growth; type: in vivo, NSG mice; settings: 25 mg/kg IP, 52 days; p<0.0001
Excerpt: Cell Cycle Protein Expression. Cell Cycle Antibody Array (FullMoon BioSystems Inc, catalogue number: ACC:058), a high throughput ELISA based antibody array, designed for qualitative/semi-quantitative protein expression profiling was employed to investigate the protein changes after drug treatment. PANC-1 cells were lysed in buffer containing protease and phosphatase inhibitors (Cell Signaling, catalog number: 9803S). Total protein content was quantified by Bradford assay and equal amounts of proteins were analyzed in duplicate with arrays containing 4 to 6 spots for each of 60 probes (ACC058, Cell Cycle Antibody Array; Full Moon Biosystems, Sunnyvale, Calif.), according to manufacturer's instructions. After background correction, mean signal intensities were measured using FullMoon Inc's imaging services. Protein expressions in both the naïve and 328 treatment group was normalized to GAPDH signals. Confocal Analysis of Septin Disarrangement. To determine the impact of UR214-9 treatment on Septin-2 structure in cells, PANC-1 or JIMT-1 cells were seeded on glass slides and allowed to adhere overnight. The media was replaced with complete DMEM media supplemented with DMSO or UR214-9 (1 μM and 70 nM) and cells were incubated for 48 hours. […] The cells were stained with fluorescence linked secondary antibody for 1 hr under dark. […] Five cells were outlined and analyzed per field. […]

T1 sequence (Q16181 whole entry): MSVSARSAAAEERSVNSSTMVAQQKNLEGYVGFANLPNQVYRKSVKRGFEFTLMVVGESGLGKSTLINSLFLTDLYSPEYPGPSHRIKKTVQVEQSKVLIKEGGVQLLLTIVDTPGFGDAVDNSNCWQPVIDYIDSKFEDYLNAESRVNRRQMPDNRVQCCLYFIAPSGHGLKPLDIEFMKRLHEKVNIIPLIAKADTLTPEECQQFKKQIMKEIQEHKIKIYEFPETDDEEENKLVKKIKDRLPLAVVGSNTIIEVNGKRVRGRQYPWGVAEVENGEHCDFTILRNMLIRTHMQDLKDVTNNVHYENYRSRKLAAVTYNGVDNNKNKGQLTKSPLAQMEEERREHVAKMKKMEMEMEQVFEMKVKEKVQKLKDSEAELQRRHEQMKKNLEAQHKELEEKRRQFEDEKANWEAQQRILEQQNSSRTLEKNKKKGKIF

## O=C(Nc1cc(Cl)nc(Cl)c1)Nc1cccc(SC(F)(F)F)c1F [UR214-9]
septin-7
  septin-7 (confocal): reduced expression
[1]
  dysregulated genes, down: 4
  dysregulated genes, up: 7
HER2+ PANC-1 xenograft
  xenograft tumor growth: significantly delayed growth
